{
  "source": "PubChem BioAssay AID2060901",
  "about": "(Molecular Pharmacology Branch, DTP, NCI, 2025)",
  "test_system": "422866-222-R5-J1-PDC complex spheroids viability",
  "assay": "Anticancer human tumor 422866-222-R5-J1-PDC patient-derived pancreatic adenocarcinoma cell line growth inhibition [RAS]",
  "conditions": "for viability, T/C: stronger effect = lower value",
  "how_it_was_run": "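Multi-cell-type spheroids: tumor cells plus HUVEC endothelial cells and mesenchymal stem cells. RAS-pathway inhibitors were combined with targeted agents, each dosed in half-log steps down from clinical Cmax, or from 10 microM when Cmax was unknown.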",
  "note": "Where “and” joins values, the source holds several entries; their conditions need not be identical. Equal values may be shown once.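 Also: spheroids exposed to compounds for 7 days.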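 For viability, T/C in this document: 100% = DMSO vehicle control viability.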",
  "data": [
    {"smiles": "C[C@@H](NC(=O)c1ncnc(N)c1Cl)c1ncc(C(=O)Nc2cc(C(F)(F)F)c(Cl)cn2)s1", "values": [
      {"measurement": "viability, T/C", "setting": "compound 0.0316 µM", "value": "131% and 103% (2×) and 113%"},
      {"measurement": "viability, T/C", "setting": "compound 0.1 µM", "value": "124% and 116% (2×) and 104%"},
      {"measurement": "viability, T/C", "setting": "compound 0.316 µM", "value": "119% [middle of 4 runs]"},
      {"measurement": "viability, T/C", "setting": "compound 1 µM", "value": "118% [middle of 4 runs]"},
      {"measurement": "viability, T/C", "setting": "compound 3.16 µM", "value": "104% (2×) and 83.4% and 92.5%"},
      {"measurement": "viability, T/C", "setting": "compound 10 µM", "value": "76.6% [middle of 4 runs]"},
      {"measurement": "IC50", "setting": "curve of compound", "value": "> 10000", "unit": "nM"}
    ]},
    {"smiles": "CC(Nc1ccc2c(c1)OCCn1cc(N3C(=O)OCC3C(F)F)nc1-2)C(N)=O", "note": "(centres undefined) + CCn1c(-c2cccnc2C(C)OC)c2c3cc(ccc31)N1CCOC(CC(NC(=O)C(C(C)C)N(C)C(=O)C3(F)CCN(C(=O)C#CC(C)(C)N(C)C)CC3)C(=O)N3CCCC(N3)C(=O)OCC(C)(C)C2)C1", "values": [
      {"measurement": "IC50", "setting": "curve of first compound, second compound 0.000949 µM", "value": "< 31.6", "unit": "nM"},
      {"measurement": "IC50", "setting": "curve of first compound, second compound 0.003 µM", "value": "< 31.6", "unit": "nM"},
      {"measurement": "IC50", "setting": "curve of first compound, second compound 0.00949 µM", "value": "< 31.6", "unit": "nM"},
      {"measurement": "IC50", "setting": "curve of first compound, second compound 0.03 µM", "value": "< 31.6", "unit": "nM"},
      {"measurement": "IC50", "setting": "curve of first compound, second compound 0.0949 µM", "value": "< 31.6", "unit": "nM"},
      {"measurement": "IC50", "setting": "curve of first compound, second compound 0.3 µM", "value": "< 31.6", "unit": "nM"},
      {"measurement": "viability, T/C", "setting": "second compound 0.000949 µM, first compound 0.0316 µM", "value": 18.2, "unit": "%"},
      {"measurement": "viability, T/C", "setting": "second compound 0.000949 µM, first compound 0.1 µM", "value": 15.9, "unit": "%"},
      {"measurement": "viability, T/C", "setting": "second compound 0.000949 µM, first compound 0.316 µM", "value": 10.3, "unit": "%"},
      {"measurement": "viability, T/C", "setting": "second compound 0.000949 µM, first compound 1 µM", "value": 9.14, "unit": "%"},
      {"measurement": "viability, T/C", "setting": "second compound 0.000949 µM, first compound 3.16 µM", "value": 26.9, "unit": "%"},
      {"measurement": "viability, T/C", "setting": "second compound 0.000949 µM, first compound 10 µM", "value": 6.64, "unit": "%"},
      {"measurement": "viability, T/C", "setting": "second compound 0.003 µM, first compound 0.0316 µM", "value": 14.5, "unit": "%"},
      {"measurement": "viability, T/C", "setting": "second compound 0.003 µM, first compound 0.1 µM", "value": 11.7, "unit": "%"},
      {"measurement": "viability, T/C", "setting": "second compound 0.003 µM, first compound 0.316 µM", "value": 9.43, "unit": "%"},
      {"measurement": "viability, T/C", "setting": "second compound 0.003 µM, first compound 1 µM", "value": 9.79, "unit": "%"},
      {"measurement": "viability, T/C", "setting": "second compound 0.003 µM, first compound 3.16 µM", "value": 19.8, "unit": "%"},
      {"measurement": "viability, T/C", "setting": "second compound 0.003 µM, first compound 10 µM", "value": 5.92, "unit": "%"},
      {"measurement": "viability, T/C", "setting": "second compound 0.00949 µM, first compound 0.0316 µM", "value": 14.6, "unit": "%"},
      {"measurement": "viability, T/C", "setting": "second compound 0.00949 µM, first compound 0.1 µM", "value": 11.4, "unit": "%"},
      {"measurement": "viability, T/C", "setting": "second compound 0.00949 µM, first compound 0.316 µM", "value": 9.65, "unit": "%"},
      {"measurement": "viability, T/C", "setting": "second compound 0.00949 µM, first compound 1 µM", "value": 6.24, "unit": "%"},
      {"measurement": "viability, T/C", "setting": "second compound 0.00949 µM, first compound 3.16 µM", "value": 17.5, "unit": "%"},
      {"measurement": "viability, T/C", "setting": "second compound 0.00949 µM, first compound 10 µM", "value": 5.13, "unit": "%"},
      {"measurement": "viability, T/C", "setting": "second compound 0.03 µM, first compound 0.0316 µM", "value": 12.7, "unit": "%"},
      {"measurement": "viability, T/C", "setting": "second compound 0.03 µM, first compound 0.1 µM", "value": 10.8, "unit": "%"},
      {"measurement": "viability, T/C", "setting": "second compound 0.03 µM, first compound 0.316 µM", "value": 8.08, "unit": "%"},
      {"measurement": "viability, T/C", "setting": "second compound 0.03 µM, first compound 1 µM", "value": 5.84, "unit": "%"},
      {"measurement": "viability, T/C", "setting": "second compound 0.03 µM, first compound 3.16 µM", "value": 16.7, "unit": "%"},
      {"measurement": "viability, T/C", "setting": "second compound 0.03 µM, first compound 10 µM", "value": 4.66, "unit": "%"},
      {"measurement": "viability, T/C", "setting": "second compound 0.0949 µM, first compound 0.0316 µM", "value": 13.7, "unit": "%"},
      {"measurement": "viability, T/C", "setting": "second compound 0.0949 µM, first compound 0.1 µM", "value": 9.18, "unit": "%"},
      {"measurement": "viability, T/C", "setting": "second compound 0.0949 µM, first compound 0.316 µM", "value": 8.36, "unit": "%"},
      {"measurement": "viability, T/C", "setting": "second compound 0.0949 µM, first compound 1 µM", "value": 5.71, "unit": "%"},
      {"measurement": "viability, T/C", "setting": "second compound 0.0949 µM, first compound 3.16 µM", "value": 17.2, "unit": "%"},
      {"measurement": "viability, T/C", "setting": "second compound 0.0949 µM, first compound 10 µM", "value": 3.5, "unit": "%"},
      {"measurement": "viability, T/C", "setting": "second compound 0.3 µM, first compound 0.0316 µM", "value": 10.9, "unit": "%"},
      {"measurement": "viability, T/C", "setting": "second compound 0.3 µM, first compound 0.1 µM", "value": 8.1, "unit": "%"},
      {"measurement": "viability, T/C", "setting": "second compound 0.3 µM, first compound 0.316 µM", "value": 5.84, "unit": "%"},
      {"measurement": "viability, T/C", "setting": "second compound 0.3 µM, first compound 1 µM", "value": 3.47, "unit": "%"},
      {"measurement": "viability, T/C", "setting": "second compound 0.3 µM, first compound 3.16 µM", "value": 10, "unit": "%"},
      {"measurement": "viability, T/C", "setting": "second compound 0.3 µM, first compound 10 µM", "value": 2.74, "unit": "%"}
    ]}
  ]
}
